We go through 9 compounds from patent US10968186B2, “Ascochlorin derivative and use thereof as AMPK activator” (priority 2016, dated 2021).

In brackets after ≈: the same amount, converted by molar mass. Read-outs that look alike come from different tables or passages of the source.

One series relates to BxPC-3. The experiment in a line: Anti-proliferative activity, CellTiterGlo assay, BxPC-3. Format: cell-based. The settings on record: Homo sapiens; BxPC-3, 96 hrs incubation; read-out: Antiproliferative activities IC50, BxPC-3. How it is done: (§1) The anti-proliferative activities of the compounds against 6 human cancer cell lines were determined by CellTiterGlo assay kit. All cells were obtained from ATCC and cultured as recommended by the vendor. Cells were assayed in exponential growth phase. Sample solution was prepared by 3-fold serial dilution from 30 mM stock for 10 doses in DMSO. Antiproliferative activities were measured by CellTiterGlo assay kit according to the protocol after cells were incubated for 96 hrs in a 37° C., 5% CO2 incubator.
(§2) On the 4th day of incubation, i) 15 μl reagent (CelltiterGlo assay kit) was added per well and plate was shaken (avoiding light) for 2 mins on a plate shaker, ii) the plate was kept (avoiding light) in room temperature for 30 min, and iii) the luminescence value was recorded by Multiplate reader.
A general note: Cellular ATP, detected with luciferase, serves as a proxy for viable cell number.

Another series deals with A549. The series can be described thus: Anti-proliferative activity, CellTiterGlo assay, A549. The note with it: Homo sapiens; A549, 96 hrs incubation; read-out: Antiproliferative activities IC50, A549. Format: cell-based. The protocol: as §1, §2
The next series relates to U87-MG. The experiment in a line: Anti-proliferative activity, CellTiterGlo assay, U87-MG. Format: cell-based. The note with it: Homo sapiens, U-87 MG, 96 hrs incubation, read-out: Antiproliferative activities IC50, U87-MG. How it is done:
as §1, §2

The nature of series [1]: Stability against human liver microsomes. It counts as in vitro ADME. The note with it: 2 μM compound. How it is done:
(§3) Determination of Stability Against Mouse and Human Mirosomes
(§4) Pooled human liver microsomes (Cat. 452161; Lot. 23418) were purchased from Corning and pooled male mouse liver microsomes (Cat. M1000; Lot. 1210302) were purchased from Xenotech. Microsomes were stored at −80° C. prior to use. 40 μL of ultra-pure H2O was used instead of NADPH solution in the negative control. The negative control was used to exclude the misleading factor that was resulted from instability of chemical itself. Samples with NADPH were prepared in duplicate. Negative controls were prepared in singlet.
(§5) The reaction was started with the addition of 4 μL of 200 μM compound solution to each master solution to get the final concentration of 2 μM. Verapamil was used as positive control in the assay. Aliquots of 50 μL were taken from the reaction solution at 0, 15, 30, 45 and 60 min. The reaction was stopped by addition of 4 volumes of cold acetonitrile with IS (200 nM imipramine, 200 nM labetalol and 2 μM ketoprofen). Samples were centrifuged at 3,220 g for 40 minutes. Aliquot of […] of the supernatant was mixed with 90 μL of ultra-pure H2O and then was used for LC-MS/MS analysis. Results are shown in Table 3 by indicating remaining % of the test compound after 60 minutes incubation with liver microsomes from human and mouse in the presence of NADPH.
On the technique in general: Microsomes from liver hold many membrane-bound enzymes, among them those of drug oxidation.

A further series has as its system HT29. The experiment in a line: Anti-proliferative activity, CellTiterGlo assay, HT29. It counts as cell-based. The note with it: Homo sapiens, HT-29; HT29, 96 hrs incubation; read-out: Antiproliferative activities IC50, HT29. How it is done:
as §1, §2

Series [2] can be described thus: Stability against mouse liver microsomes. It counts as in vitro ADME. The settings on record: mouse LM, 2 μM compound, 60 min, NADPH. How it is done:
as §3, §4, §5

The next series has as its system LNCaP. The experiment in a line: Anti-proliferative activity, CellTiterGlo assay, LNCaP. It counts as cell-based. The settings on record: Homo sapiens, 96 hrs incubation, read-out: Antiproliferative activities IC50, LNCaP. The protocol: as §1, §2
The next series concerns MDA-MB-231. The experiment in a line: Anti-proliferative activity, CellTiterGlo assay, MDA-MB-231. The settings on record: Homo sapiens; MDA-MB-231, 96 hrs incubation; read-out: Antiproliferative activities IC50, MDA-MB-231. Format: cell-based. The protocol: as §1, §2
Series [3] is described as follows: Solubility in pH4.0 and pH7.4 phosphate buffer solution. It counts as physicochemical. The note with it: phosphate buffer (PBS), aqueous buffer, kinetic from dmso stock, 2 hr incubation, 25° C. How it is done:
1) Preparation of Stock Solutions
Diclofenac was used as positive control in the assay.
2) Procedures for Solubility Determination
This study was performed in duplicate. […] The filtered samples were diluted with methanol.
3) Samples Analyzed by LC-MS/MS

Where [4] appears, read: pH 4.0 phosphate buffer solution, read-out: Solubility, pH 4.0 PBS.
Setting [5] is: pH 7.4 phosphate buffer solution, read-out: Solubility, pH 7.4 PBS.

As a reminder, the IC50 is the concentration at which inhibition is half-maximal. As a reminder, the solubility is the concentration that dissolves in the medium under given conditions.

On to `CC(/C=C/[C@@]1(C)[C@H](C)CC/C(=N\O)[C@@H]1C)=C\Cc1c(O)c(/C=N/O)c(C)c(Cl)c1OCF` [Compound 4, 4-chloro-3-(fluoromethoxy)-2-[(2E,4E)-5-[(1R,2R,3E,6R)-3-(hydroxyimino)-1,2,6-trimethylcyclohexyl]-3-methylpenta-2,4-dien-1-yl]-6-[(1E)-(hydroxyimino)methyl]-5-methylphenol], for which the IC50 stood at 11.4 µM in the series on BxPC-3; 4.3 µM with A549; 9.1 µM in the series with U87-MG; 6.4 µM with HT29; 4.2 µM in the series on LNCaP; 5.1 µM with MDA-MB-231. Also, the “Liver microsome stability remaining % after 60 min incubation with NADPH, human LM” value (“Liver microsome stability remaining % … human LM” for short) in series [1] was 67%. For the same compound, the “Liver microsome stability remaining % after 60 min incubation with NADPH, mouse LM” value (shortened to “Liver microsome stability remaining % … mouse LM”) in series [2] was determined as 47%.

As for `COc1c(Cl)c(C)c(/C=N/O)c(O)c1C/C=C(C)/C=C/[C@@]1(C)[C@H](C)CCC(C)(O)[C@@H]1C` (stereo partly drawn) [Compound 7, (E)-3-chloro-6-hydroxy-5-((2E,4E)-5-((1R,2R,6R)-3-hydroxy-1,2,3,6-tetramethylcyclohexyl)-3-methylpenta-2,4-dien-1-yl)-4-methoxy-2-methylbenzaldehyde oxime], the half-maximal inhibitory concentration (IC50) in the series with BxPC-3 is 12.8 µM; with A549 it was 6.5 µM; with U87-MG it was 13.1 µM; with HT29 it was 10 µM; in the series on LNCaP it was 7.2 µM; in the series with MDA-MB-231, 6.8 µM. The “Liver microsome stability remaining % … human LM” value in series [1] was found to be 71%. In addition, the “Liver microsome stability remaining % … mouse LM” value in [2] is 71%.

With `CC(/C=C/[C@@]1(C)[C@H](C)CC/C(=N\OCCN2CCOCC2)[C@@H]1C)=C\Cc1c(O)c(C=O)c(C)c(Cl)c1OCF` [Compound 12, 3-chloro-4-(fluoromethoxy)-6-hydroxy-2-methyl-5-[(2E,4E)-3-methyl-5-[(1R,2R,3E,6R)-1,2,6-trimethyl-3-[[2-(morpholin-4-yl)ethoxy]imino]cyclohexyl]penta-2,4-dien-1-yl]benzaldehyde], the IC50 was 2.3 µM in the series on BxPC-3; 2.9 µM in the series on A549; 3.6 µM with U87-MG; 2.8 µM in the series on HT29; 0.9 µM in the series on LNCaP; 5.8 µM in the series on MDA-MB-231.

For the compound `CC(/C=C/[C@@]1(C)[C@H](C)CCC(NC2CC2)[C@@H]1C)=C\Cc1c(O)c(C=O)c(C)c(Cl)c1OCF` (stereo partly drawn) [Compound 13, 3-chloro-5-[(2E,4E)-5-[(1R,2R,6R)-3-(cyclopropylamino)-1,2,6-trimethylcyclohexyl]-3-methylpenta-2,4-dien-1-yl]-4-(fluoromethoxy)-6-hydroxy-2-methylbenzaldehyde], the IC50 in the series on BxPC-3 is 2.2 µM; with A549, 2 µM; in the series with U87-MG, 3 µM; with HT29 it was 3.6 µM; in the series on LNCaP, 0.8 µM; with MDA-MB-231 it was 5.3 µM. Besides, the figures for the solubility at 2 h in [3] (setting [4]) and in series [3] (setting [5]) were 18 µM (≈ 8.6 µg/mL) and 0.01 µM (≈ 0.00478 µg/mL), respectively.

As for `CO/N=C/c1c(C)c(Cl)c(OC)c(C/C=C(C)/C=C/[C@@]2(C)[C@H](C)CC/C(=N\OCCN(C)C)[C@@H]2C)c1O` [Compound 15, 4-chloro-2-[(2E,4E)-5-[(1R,2R,3E,6R)-3-[[2-(dimethylamino)ethoxy]imino]-1,2,6-trimethylcyclohexyl]-3-methylpenta-2,4-dien-1-yl]-3-methoxy-6-[(1E)-(methoxyimino)methyl]-5-methylphenol], the IC50 worked out at 1.7 µM in the series with BxPC-3; 6.7 µM in the series with A549; 4.4 µM with U87-MG; 7 µM in the series on HT29; 4.2 µM in the series with LNCaP; 4.8 µM in the series with MDA-MB-231. For the same compound, the solubility at 2 h in series [3] (setting [4]) is 54 µM (≈ 28.8 µg/mL); in [3] (setting [5]), 0.29 µM (≈ 0.155 µg/mL). Moreover, the “Liver microsome stability remaining % … human LM” value in series [1] is 88%. Also, the “Liver microsome stability remaining % … mouse LM” value in series [2] is recorded as 79%.

As for `CO/N=C/c1c(C)c(Cl)c(OC)c(C/C=C(C)/C=C/[C@@]2(C)[C@H](C)CC/C(=N\OCCN3CCN(C)CC3)[C@@H]2C)c1O` [Compound 17, 4-chloro-3-methoxy-6-[(1E)-(methoxyimino)methyl]-5-methyl-2-[(2E,4E)-3-methyl-5-[(1R,2R,3E,6R)-1,2,6-trimethyl-3-[[2-(4-methylpiperazin-1-yl)ethoxy]imino]cyclohexyl]penta-2,4-dien-1-yl]phenol], the half-inhibitory concentration (IC50) with BxPC-3 was 1.7 µM; with A549, 6.8 µM; in the series with U87-MG, 4.5 µM; in the series with HT29 it was 5.2 µM; in the series with LNCaP, 4.1 µM; with MDA-MB-231, 5 µM. Further, the solubility at 2 h was 39 µM (≈ 23 µg/mL) in [3] (setting [4]) and 0.04 µM (≈ 0.0236 µg/mL) in series [3] (setting [5]). The “Liver microsome stability remaining % … human LM” value in [1] is reported as 76%. Besides, in [2], the “Liver microsome stability remaining % … mouse LM” value was determined as 55%.

For the compound `CCNC1CC[C@@H](C)[C@](C)(/C=C/C(C)=C/Cc2c(O)c(C=O)c(C)c(Cl)c2OC)[C@H]1C` (stereo partly drawn) [Compound 20, 3-chloro-5-[(2E,4E)-5-[(1R,2R,6R)-3-(ethylamino)-1,2,6-trimethylcyclohexyl]-3-methylpenta-2,4-dien-1-yl]-6-hydroxy-4-methoxy-2-methylbenzaldehyde], the 50% inhibitory concentration (IC50) was 2.3 µM with BxPC-3; 4.8 µM in the series on A549; 2.3 µM in the series on U87-MG; 2.7 µM in the series with HT29; 1.9 µM with LNCaP; 4.1 µM in the series on MDA-MB-231. The solubility at 2 h was 186 µM (≈ 83.3 µg/mL) in series [3] (setting [4]) and 0.32 µM (≈ 0.143 µg/mL) in series [3] (setting [5]).

`CCNC1CC[C@@H](C)[C@](C)(/C=C/C(C)=C/Cc2c(O)c(/C=N/OC)c(C)c(Cl)c2OC)[C@H]1C` (stereo partly drawn) [Compound 21, 4-chloro-2-[(2E,4E)-5-[(1R,2R,6R)-3-(ethylamino)-1,2,6-trimethylcyclohexyl]-3-methylpenta-2,4-dien-1-yl]-3-methoxy-6-[(1E)-(methoxyimino)methyl]-5-methylphenol]: the IC50 in the series with BxPC-3 amounted to 1.7 µM; with A549, 5.3 µM; with U87-MG, 3.1 µM; with HT29, 5 µM; in the series with LNCaP, 3.8 µM; in the series on MDA-MB-231, 4.3 µM. The solubility at 2 h in series [3] (setting [4]) stood at 168 µM (≈ 80.2 µg/mL); in series [3] (setting [5]) it was 0.003 µM (≈ 0.00143 µg/mL). In addition, the “Liver microsome stability remaining % … human LM” value in series [1] is recorded as 100%. Besides, the “Liver microsome stability remaining % … mouse LM” value in series [2] turned out to be 80%.

`COc1c(Cl)c(C)c(C=O)c(O)c1C/C=C(C)/C=C/[C@@]1(C)[C@H](C)CCC(NC2CC2)[C@@H]1C` (stereo partly drawn) [Compound 22, 3-chloro-5-[(2E,4E)-5-[(1R,2R,6R)-3-(cyclopropylamino)-1,2,6-trimethylcyclohexyl]-3-methylpenta-2,4-dien-1-yl]-6-hydroxy-4-methoxy-2-methylbenzaldehyde]: the IC50 is 2.7 µM with BxPC-3; 1.9 µM in the series with A549; 3.2 µM in the series on U87-MG; 3.8 µM in the series with HT29; 1.1 µM in the series on LNCaP; 6 µM with MDA-MB-231. For the same compound, the solubility at 2 h in series [3] (setting [4]) was 29 µM (≈ 13.3 µg/mL); in series [3] (setting [5]), 0.01 µM (≈ 0.0046 µg/mL).
